Measured values reported in patent publication US6166051A, “Thiol derivatives with metallopeptidase (ACE/NEP) inhibitory activity” (Zambon Group S.p.A., priority 1995, dated 2000).

Key:
[1] = molecular target: T1, NEP (neutral endopeptidase enzyme) (Rattus norvegicus, UniProt P07861); test: NEP-inhibitory activity in rat kidney cortex membranes ([3H][Leu5]-enkephaline degradation); type: biochemical; conditions: in vitro, [3H][Leu5]-enkephaline 15 nM, 20 minutes at 30° C., pH 7.4
T1 construct: from tissue; host or cells: kidney cortex membranes of male Sprague-Dawley rats
T1 sequence (P07861 1-750): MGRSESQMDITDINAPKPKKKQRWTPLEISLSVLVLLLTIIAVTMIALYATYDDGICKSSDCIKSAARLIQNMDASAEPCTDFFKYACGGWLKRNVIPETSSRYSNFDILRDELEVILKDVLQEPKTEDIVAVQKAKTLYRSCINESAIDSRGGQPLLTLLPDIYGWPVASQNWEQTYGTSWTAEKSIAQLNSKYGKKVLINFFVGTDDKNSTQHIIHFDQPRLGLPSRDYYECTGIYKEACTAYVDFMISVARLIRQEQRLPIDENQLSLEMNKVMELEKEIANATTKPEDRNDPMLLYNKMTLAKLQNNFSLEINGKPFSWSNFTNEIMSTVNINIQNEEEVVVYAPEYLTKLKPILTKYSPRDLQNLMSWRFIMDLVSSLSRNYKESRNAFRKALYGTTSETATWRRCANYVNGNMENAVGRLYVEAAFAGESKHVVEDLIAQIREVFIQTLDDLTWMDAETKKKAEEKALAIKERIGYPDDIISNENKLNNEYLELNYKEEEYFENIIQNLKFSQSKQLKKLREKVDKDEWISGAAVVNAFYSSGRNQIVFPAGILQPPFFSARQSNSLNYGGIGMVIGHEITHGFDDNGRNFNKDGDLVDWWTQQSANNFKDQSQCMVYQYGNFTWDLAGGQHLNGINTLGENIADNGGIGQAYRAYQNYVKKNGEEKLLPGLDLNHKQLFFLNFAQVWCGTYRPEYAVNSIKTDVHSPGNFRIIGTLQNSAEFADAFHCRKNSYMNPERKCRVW
Experimental: a) NEP-inhibitory Activity
The NEP-inhibitory activity was evaluated in rat kidney cortex membranes prepared according to the procedure described by T. Maeda et al. in Biochim Biophys. Acta 1983, 731(1), 115-120.
Kidneys were removed from male Sprague-Dawley rats weighing approximately 300 g and kept at 4° C.
Kidney cortex was carefully removed, finely minced and suspended into a homogenization buffer (10 mM sodium phosphate pH 7.4 containing 1 mM MgCl2, 30 mM NaCl, 0.02% NaN3) 1:15 weight/volume.
The tissue was then cold homogenized for 30 seconds using an Ultra-Turrax homogenizer.
Approximately 10 ml of homogenate were layered over 10 ml of sucrose (41% weight/volume) and centrifuged at 31200 rpm for 30 minutes at 4° C. in a fixed angle rotor.
The membranes were collected from the buffer/sucrose interface, washed twice with 50 mM TRIS/HCl buffer (pH 7.4) and resuspended into the same buffer for the storage of aliquots at -80° C. until use.
The NEP-inhibitory activity was evaluated according to the method described by C. Llorens et aL, in Eur. J. Pharmacol., 69, (1981), 113-116, as reported hereinafter.
Aliquots of the membrane suspension prepared as above described (concentration 5 μg/ml of proteins) were preincubated in the presence of an aminopeptidase inhibitor (Bestatin--1 mM) for 10 minutes at 30° C. [^3 H][Leu^5 ]-enkephaline (15 nM) and buffer TRIS/HCl pH 7.4 (50 mM) were added in order to obtain a final volume of 100 μl.
The enzymatic reaction was stopped by adding HCl 0.1M (100 μl) after 20 minutes of incubation at 30° C.
The formation of the metabolite [^3 H]Tyr-Gly-Gly was quantified, after separation of the unreacted substrate by chromatography on polystyrene columns (Porapak Q), by measuring the relative radioactivity through liquid scintillation.
The percentage of inhibition of the metabolite formation in the membrane preparations treated with the compounds of formula I and with the comparative compounds with respect to the untreated membrane preparations was expressed as IC50 (nM) value.

[2] = molecular target: T2, ACE (angiotensin converting enzyme) (Oryctolagus cuniculus, UniProt P12822); test: ACE-inhibitory activity (FAPGG substrate, absorbance at 340 nm); type: biochemical; conditions: in vitro, ACE purified from rabbit lung, 37° C.
T2 construct: purchased SIGMA; host or cells: rabbit lung
T2 sequence (P12822 34-1310): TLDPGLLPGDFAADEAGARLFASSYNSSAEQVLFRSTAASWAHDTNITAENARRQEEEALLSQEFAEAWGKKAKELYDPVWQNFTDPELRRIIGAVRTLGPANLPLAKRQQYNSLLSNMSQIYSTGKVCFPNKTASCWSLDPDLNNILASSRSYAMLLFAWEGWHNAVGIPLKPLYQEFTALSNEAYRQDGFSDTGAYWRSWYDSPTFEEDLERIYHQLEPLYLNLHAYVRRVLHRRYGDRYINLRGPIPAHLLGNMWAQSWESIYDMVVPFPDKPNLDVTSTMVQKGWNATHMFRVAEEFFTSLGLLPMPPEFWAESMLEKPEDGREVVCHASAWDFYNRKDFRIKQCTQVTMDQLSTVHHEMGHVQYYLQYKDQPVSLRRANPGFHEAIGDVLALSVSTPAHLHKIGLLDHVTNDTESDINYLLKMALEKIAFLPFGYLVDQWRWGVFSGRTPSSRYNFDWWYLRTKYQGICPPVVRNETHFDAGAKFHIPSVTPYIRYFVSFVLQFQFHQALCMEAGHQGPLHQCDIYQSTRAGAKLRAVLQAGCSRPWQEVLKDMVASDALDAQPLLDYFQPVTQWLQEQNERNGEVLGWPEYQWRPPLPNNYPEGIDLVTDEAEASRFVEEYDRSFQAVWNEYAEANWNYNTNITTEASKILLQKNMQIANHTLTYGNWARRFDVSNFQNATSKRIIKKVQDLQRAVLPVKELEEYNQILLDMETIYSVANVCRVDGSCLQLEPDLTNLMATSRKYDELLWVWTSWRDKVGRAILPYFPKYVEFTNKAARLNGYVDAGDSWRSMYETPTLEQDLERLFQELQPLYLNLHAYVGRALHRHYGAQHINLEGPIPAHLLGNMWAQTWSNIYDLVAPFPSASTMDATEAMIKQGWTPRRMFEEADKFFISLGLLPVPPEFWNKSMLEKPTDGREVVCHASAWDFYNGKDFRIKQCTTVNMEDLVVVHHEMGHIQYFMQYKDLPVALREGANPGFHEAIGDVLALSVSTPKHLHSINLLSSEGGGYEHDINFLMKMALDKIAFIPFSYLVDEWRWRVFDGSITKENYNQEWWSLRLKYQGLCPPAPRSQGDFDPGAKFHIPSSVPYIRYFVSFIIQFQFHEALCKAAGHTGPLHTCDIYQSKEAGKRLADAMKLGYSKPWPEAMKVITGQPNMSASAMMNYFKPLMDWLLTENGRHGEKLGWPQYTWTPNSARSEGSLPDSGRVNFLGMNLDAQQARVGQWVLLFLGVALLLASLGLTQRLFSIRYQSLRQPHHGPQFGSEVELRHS
Experimental: b) ACE-inhibitory Activity
50 μM of ACE (250 μmU/ml purified by lung rabbit, EC 3.4.15.1 SIGMA) were preincubated with 50 μl of the compound of formula I or of the comparison compound or related vehicle in thermostated cuvettes at 37° C.
The reaction was started by adding 500 μl of furylacryloylphenylalanylglycylglycine 0.8 mM (FAPGG-SIGMA).
Contemporaneously, by using a Beckman DU-50 spectrophotometer provided with a program for calculating delta A/minutes and regression coefficients of the enzyme kinetics curyes, the absorbance at 340 nm was recorded in continuo for 5 minutes.
The percentage of inhibition in the preparations incubated with the compounds of formula I or with the comparative compounds with respect to the preparations incubated with the vehicle was expressed as IC50 (nM) value.

SMILES	NEP-inhibitory activity IC50 (nM) [1]	IC50 [1]	IC50 [2]
C[C@H](CS)C(=O)N1CCC[C@H]1C(=O)O [Captopril, reference compound]	not active		
O=C(N[C@@H](Cc1cscn1)C(=O)O)C(CS)Cc1ccccc1 (stereo partly drawn) [compound 4, N-(2-phenylmethyl-3-mercaptopropionyl)-(4-thiazolyl)-L-alanine]		4.7 nM	12 nM
O=C(N[C@@H](Cc1cccs1)C(=O)O)C(CS)Cc1ccccc1 (stereo partly drawn) [compound 5, N-(2-phenylmethyl-3-mercaptopropionyl)-(2-thienyl)-L-alanine]		5.5 nM	6.5 nM
O=C(N[C@@H](Cc1ccccn1)C(=O)O)C(CS)Cc1ccccc1 (stereo partly drawn) [compound 6, N-(^2-phenylmethyl-3-mercaptopropionyl)-(2-pyridyl)-L-alanine]		7.1 nM	23 nM
